Assays:
Assay in all cases: KINOMEscan competition binding
Conditions in all cases: compound 10.0 µM
[1] = system: FLT3 (human), P36888 [ITD]
MAPK13 (human) = MAPK13 (human) (UniProt O15264)
CAMKK2 (human) = CAMKK2 (human) (UniProt Q96RR4)
TEK (human) = TEK (human) (UniProt Q02763)
CAMK1D (human) = CAMK1D (human) (UniProt Q8IU85)
CDK15 (human) = CDK15 (human) (UniProt Q96Q40)
MLTK (human) = MLTK (human) (UniProt Q9NYL2)
CDK2 (human) = CDK2 (human) (UniProt P24941)
EPHA4 (human) = EPHA4 (human) (UniProt P54764)
MYO3A (human) = MYO3A (human) (UniProt Q8NEV4)
HCK (human) = HCK (human) (UniProt P08631)
[2] = system: FLT3 (human), P36888 [D835H]
EPHB4 (human) = EPHB4 (human) (UniProt P54760)
CHEK1 (human) = CHEK1 (human) (UniProt O14757)
BRSK1 (human) = BRSK1 (human) (UniProt Q8TDC3)
MKNK1 (human) = MKNK1 (human) (UniProt Q9BUB5)
MAP3K4 (human) = MAP3K4 (human) (UniProt Q9Y6R4)
CAMK2D (human) = CAMK2D (human) (UniProt Q13557)
TEC (human) = TEC (human) (UniProt P42680)
PIK3CA (human) = PIK3CA (human) (UniProt P42336)
DCLK1 (human) = DCLK1 (human) (UniProt O15075)
DYRK1B (human) = DYRK1B (human) (UniProt Q9Y463)
TLK1 (human) = TLK1 (human) (UniProt Q9UKI8)
ACVR2A (human) = ACVR2A (human) (UniProt P27037)
DMPK (human) = DMPK (human) (UniProt Q09013)
PIK3C2B (human) = PIK3C2B (human) (UniProt O00750)
CSNK1G2 (human) = CSNK1G2 (human) (UniProt P78368)
ROCK2 (human) = ROCK2 (human) (UniProt O75116)
AAK1 (human) = AAK1 (human) (UniProt Q2M2I8)
MAPK3 (human) = MAPK3 (human) (UniProt P27361)
NTRK2 (human) = NTRK2 (human) (UniProt Q16620)
RPS6KA5 KD2 (human) = RPS6KA5 KD2 (human) (UniProt O75582)
RPS6KA6 KD2 (human) = RPS6KA6 KD2 (human) (UniProt Q9UK32)
PLK3 (human) = PLK3 (human) (UniProt Q9H4B4)
PRKCH (human) = PRKCH (human) (UniProt P24723)
PKN1 (human) = PKN1 (human) (UniProt Q16512)
IRAK3 (human) = IRAK3 (human) (UniProt Q9Y616)
DAPK3 (human) = DAPK3 (human) (UniProt O43293)
SRPK2 (human) = SRPK2 (human) (UniProt P78362)
MAP3K5 (human) = MAP3K5 (human) (UniProt Q99683)
MYLK (human) = MYLK (human) (UniProt Q15746)
PRKAA2 (human) = PRKAA2 (human) (UniProt P54646)

Sequence of CAMKK2 (human) (Q96RR4 whole entry, looked up): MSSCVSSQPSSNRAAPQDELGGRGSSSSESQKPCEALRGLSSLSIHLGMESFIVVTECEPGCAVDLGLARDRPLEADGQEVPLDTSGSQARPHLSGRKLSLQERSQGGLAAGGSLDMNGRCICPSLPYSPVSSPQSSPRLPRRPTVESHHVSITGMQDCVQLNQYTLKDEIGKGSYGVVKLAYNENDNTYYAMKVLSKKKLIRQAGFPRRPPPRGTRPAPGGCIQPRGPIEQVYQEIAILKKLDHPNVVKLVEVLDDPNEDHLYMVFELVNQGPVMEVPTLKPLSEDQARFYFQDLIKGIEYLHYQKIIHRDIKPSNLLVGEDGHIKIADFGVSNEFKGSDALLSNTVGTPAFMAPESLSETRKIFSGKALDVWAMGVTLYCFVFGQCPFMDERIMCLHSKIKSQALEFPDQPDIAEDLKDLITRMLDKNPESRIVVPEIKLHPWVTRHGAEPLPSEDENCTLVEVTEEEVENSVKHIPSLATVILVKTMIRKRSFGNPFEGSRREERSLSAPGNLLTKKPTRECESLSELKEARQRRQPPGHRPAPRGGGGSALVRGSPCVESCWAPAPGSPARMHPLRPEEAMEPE
Sequence of MAPK13 (human) (O15264 whole entry, looked up): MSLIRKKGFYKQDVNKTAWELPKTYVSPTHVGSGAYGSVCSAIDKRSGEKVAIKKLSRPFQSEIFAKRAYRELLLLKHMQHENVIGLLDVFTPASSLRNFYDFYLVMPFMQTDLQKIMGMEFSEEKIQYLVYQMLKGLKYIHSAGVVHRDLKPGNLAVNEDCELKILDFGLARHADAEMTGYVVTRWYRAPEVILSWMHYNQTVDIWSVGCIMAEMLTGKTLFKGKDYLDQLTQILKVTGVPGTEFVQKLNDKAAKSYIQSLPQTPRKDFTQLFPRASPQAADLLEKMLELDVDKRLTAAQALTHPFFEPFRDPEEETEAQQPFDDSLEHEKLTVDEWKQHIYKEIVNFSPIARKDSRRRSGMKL
Sequence of MLTK (human) (Q9NYL2 whole entry, looked up): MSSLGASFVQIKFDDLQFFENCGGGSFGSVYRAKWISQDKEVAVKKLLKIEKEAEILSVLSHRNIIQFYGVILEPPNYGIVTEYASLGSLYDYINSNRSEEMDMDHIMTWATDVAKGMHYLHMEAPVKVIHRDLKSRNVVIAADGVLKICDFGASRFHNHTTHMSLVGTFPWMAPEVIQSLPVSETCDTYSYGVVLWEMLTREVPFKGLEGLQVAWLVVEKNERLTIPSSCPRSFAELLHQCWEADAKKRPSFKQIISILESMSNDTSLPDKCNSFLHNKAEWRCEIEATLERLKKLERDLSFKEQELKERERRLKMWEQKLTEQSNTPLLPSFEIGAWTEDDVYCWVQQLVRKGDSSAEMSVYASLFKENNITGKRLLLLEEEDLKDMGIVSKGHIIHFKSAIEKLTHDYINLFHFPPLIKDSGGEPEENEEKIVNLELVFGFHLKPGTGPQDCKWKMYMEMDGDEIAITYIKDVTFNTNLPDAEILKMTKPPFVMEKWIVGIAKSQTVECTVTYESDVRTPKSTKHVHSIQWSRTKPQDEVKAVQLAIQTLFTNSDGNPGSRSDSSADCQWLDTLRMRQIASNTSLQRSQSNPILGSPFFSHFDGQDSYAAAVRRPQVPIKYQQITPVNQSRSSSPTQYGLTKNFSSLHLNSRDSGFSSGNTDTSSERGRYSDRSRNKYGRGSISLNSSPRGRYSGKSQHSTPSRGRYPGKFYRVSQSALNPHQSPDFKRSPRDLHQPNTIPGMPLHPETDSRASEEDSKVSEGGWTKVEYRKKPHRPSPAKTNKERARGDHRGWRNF
Sequence of HCK (human) (P08631 whole entry, looked up): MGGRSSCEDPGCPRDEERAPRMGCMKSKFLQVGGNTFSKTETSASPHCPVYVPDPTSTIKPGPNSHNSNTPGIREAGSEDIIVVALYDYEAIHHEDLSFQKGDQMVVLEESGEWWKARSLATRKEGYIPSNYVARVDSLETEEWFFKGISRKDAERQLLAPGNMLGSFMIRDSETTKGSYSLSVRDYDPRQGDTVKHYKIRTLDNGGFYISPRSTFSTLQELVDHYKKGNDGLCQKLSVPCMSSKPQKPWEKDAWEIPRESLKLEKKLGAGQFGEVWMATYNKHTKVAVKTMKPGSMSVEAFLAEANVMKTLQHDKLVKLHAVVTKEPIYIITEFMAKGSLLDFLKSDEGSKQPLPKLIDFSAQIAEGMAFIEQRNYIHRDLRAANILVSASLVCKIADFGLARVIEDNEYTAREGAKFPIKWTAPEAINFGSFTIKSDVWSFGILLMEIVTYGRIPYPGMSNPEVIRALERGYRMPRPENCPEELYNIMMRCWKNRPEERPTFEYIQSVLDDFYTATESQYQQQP
Sequence of TEK (human) (Q02763 whole entry, looked up): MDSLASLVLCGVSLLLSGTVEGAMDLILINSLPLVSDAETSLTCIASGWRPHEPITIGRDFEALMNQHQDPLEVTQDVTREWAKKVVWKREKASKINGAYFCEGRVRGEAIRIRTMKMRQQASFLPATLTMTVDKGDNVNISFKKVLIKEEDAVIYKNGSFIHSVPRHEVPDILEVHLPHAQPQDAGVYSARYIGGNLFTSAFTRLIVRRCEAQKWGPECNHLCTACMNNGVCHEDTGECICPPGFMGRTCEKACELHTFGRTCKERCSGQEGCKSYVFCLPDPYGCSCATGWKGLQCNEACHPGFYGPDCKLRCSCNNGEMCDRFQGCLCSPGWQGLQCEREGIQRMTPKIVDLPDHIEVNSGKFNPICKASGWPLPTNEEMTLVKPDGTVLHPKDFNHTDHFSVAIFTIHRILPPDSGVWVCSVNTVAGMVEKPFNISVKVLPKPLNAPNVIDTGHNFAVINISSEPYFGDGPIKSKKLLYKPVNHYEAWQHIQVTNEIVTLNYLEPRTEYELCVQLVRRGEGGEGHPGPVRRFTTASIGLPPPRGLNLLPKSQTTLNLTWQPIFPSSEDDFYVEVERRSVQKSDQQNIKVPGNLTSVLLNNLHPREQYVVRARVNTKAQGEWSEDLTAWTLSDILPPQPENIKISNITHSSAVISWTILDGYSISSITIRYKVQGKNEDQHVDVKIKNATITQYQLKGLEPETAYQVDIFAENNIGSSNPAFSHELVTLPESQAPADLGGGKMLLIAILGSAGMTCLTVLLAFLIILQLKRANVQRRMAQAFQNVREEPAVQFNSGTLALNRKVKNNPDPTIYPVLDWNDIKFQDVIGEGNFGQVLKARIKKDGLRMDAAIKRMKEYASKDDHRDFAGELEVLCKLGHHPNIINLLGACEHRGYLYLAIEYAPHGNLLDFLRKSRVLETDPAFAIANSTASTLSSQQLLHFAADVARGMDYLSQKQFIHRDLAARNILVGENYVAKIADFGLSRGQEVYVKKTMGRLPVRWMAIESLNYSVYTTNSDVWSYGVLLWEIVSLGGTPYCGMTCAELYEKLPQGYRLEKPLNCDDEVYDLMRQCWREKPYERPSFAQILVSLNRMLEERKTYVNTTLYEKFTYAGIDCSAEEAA
Sequence of EPHA4 (human) (P54764 whole entry, looked up): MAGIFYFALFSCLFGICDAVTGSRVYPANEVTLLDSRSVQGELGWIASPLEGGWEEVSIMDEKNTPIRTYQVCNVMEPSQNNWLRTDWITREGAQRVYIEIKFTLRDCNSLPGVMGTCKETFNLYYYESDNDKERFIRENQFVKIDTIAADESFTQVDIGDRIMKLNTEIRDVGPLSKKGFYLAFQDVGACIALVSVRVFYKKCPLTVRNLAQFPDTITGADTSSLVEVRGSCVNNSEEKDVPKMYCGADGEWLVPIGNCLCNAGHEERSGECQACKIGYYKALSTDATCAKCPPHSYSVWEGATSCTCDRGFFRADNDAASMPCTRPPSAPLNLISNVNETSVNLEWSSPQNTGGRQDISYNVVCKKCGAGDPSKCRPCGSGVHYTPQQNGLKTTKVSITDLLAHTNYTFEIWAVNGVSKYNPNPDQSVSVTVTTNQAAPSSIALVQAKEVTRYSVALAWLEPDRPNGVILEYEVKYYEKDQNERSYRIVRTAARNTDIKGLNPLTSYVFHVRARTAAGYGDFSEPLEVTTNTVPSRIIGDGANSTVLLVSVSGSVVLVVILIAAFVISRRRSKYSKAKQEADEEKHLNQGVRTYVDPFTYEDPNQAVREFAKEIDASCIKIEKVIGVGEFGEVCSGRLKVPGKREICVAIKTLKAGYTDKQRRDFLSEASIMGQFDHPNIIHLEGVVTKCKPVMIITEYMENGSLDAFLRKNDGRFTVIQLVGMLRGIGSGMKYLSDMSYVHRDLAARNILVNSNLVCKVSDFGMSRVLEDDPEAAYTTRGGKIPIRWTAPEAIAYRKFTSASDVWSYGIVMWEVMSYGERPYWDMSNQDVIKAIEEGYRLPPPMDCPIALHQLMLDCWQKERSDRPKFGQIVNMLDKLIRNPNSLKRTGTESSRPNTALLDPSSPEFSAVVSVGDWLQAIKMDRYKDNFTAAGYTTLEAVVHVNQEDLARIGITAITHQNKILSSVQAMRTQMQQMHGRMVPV
Sequence of PRKCH (human) (P24723 whole entry, looked up): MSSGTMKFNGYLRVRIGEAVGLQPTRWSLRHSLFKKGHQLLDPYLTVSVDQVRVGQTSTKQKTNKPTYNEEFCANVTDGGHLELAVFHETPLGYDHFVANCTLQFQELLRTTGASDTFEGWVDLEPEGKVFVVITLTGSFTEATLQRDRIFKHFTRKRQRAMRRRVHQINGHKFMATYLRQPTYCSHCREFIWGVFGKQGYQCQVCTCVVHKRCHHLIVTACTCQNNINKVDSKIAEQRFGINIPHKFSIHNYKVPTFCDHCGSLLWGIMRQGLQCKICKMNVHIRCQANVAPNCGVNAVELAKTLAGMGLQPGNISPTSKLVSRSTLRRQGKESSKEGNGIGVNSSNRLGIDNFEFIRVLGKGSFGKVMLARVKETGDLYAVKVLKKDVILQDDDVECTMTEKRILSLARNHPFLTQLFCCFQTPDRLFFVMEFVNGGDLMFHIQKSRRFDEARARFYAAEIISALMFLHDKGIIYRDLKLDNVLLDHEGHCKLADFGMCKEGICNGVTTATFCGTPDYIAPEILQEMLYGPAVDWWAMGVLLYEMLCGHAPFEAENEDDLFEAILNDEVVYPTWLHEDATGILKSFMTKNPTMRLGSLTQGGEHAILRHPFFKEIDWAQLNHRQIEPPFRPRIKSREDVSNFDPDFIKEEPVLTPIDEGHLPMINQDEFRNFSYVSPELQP

Work on `CCN1CCN(Cc2ccc(NC(=O)c3ccc(C)c(Oc4ccnc5[nH]ccc45)c3)cc2C(F)(F)F)CC1` yielded a kinase still bound, per cent of control [1] of 0.7%, a kinase still bound, per cent of control (MAPK13 (human)) of 0.55% and a kinase still bound, per cent of control (CAMKK2 (human)) of 28%. It also gave a kinase still bound, per cent of control (TEK (human)) of 0%, a kinase still bound, per cent of control (CAMK1D (human)) of 6.2% and a kinase still bound, per cent of control (CDK15 (human)) of 6%. It also gave a kinase still bound, per cent of control (MLTK (human)) of 0.35%, a kinase still bound, per cent of control (CDK2 (human)) of 11% and a kinase still bound, per cent of control (EPHA4 (human)) of 5.8%. The kinase still bound, per cent of control (MYO3A (human)) was 6.4%, the kinase still bound, per cent of control (HCK (human)) was 0.4% and the kinase still bound, per cent of control [2] was 1.2%.

Molecule `COc1cc(N2CCC(N3CCN(C)CC3)CC2)ccc1Nc1ncc(Cl)c(Nc2ccccc2S(=O)(=O)C(C)C)n1` has a kinase still bound, per cent of control (EPHB4 (human)) of 17%, a kinase still bound, per cent of control (CHEK1 (human)) of 0% and a kinase still bound, per cent of control (BRSK1 (human)) of 1.2%. For the same molecule, the kinase still bound, per cent of control (MKNK1 (human)) was 40%, the kinase still bound, per cent of control (MAP3K4 (human)) was 13% and the kinase still bound, per cent of control (CAMK2D (human)) was 4.1%. The kinase still bound, per cent of control (TEC (human)) was 0.7%, the kinase still bound, per cent of control (PIK3CA (human)) was 40% and the kinase still bound, per cent of control (DCLK1 (human)) was 0%. The kinase still bound, per cent of control (DYRK1B (human)) was 40%, the kinase still bound, per cent of control (TLK1 (human)) was 40% and the kinase still bound, per cent of control (MAPK13 (human)) was 40%. The kinase still bound, per cent of control (CAMKK2 (human)) was 0.1%, the kinase still bound, per cent of control (ACVR2A (human)) was 12% and the kinase still bound, per cent of control (DMPK (human)) was 1.8%. It also gave a kinase still bound, per cent of control (TEK (human)) of 0%, a kinase still bound, per cent of control (PIK3C2B (human)) of 40% and a kinase still bound, per cent of control (CSNK1G2 (human)) of 40%. For the same molecule, the kinase still bound, per cent of control (ROCK2 (human)) was 0.95%, the kinase still bound, per cent of control (AAK1 (human)) was 2.8% and the kinase still bound, per cent of control (MLTK (human)) was 40%. It also gave a kinase still bound, per cent of control (CDK2 (human)) of 24%, a kinase still bound, per cent of control (MAPK3 (human)) of 0.1% and a kinase still bound, per cent of control (NTRK2 (human)) of 8.4%. For the same molecule, the kinase still bound, per cent of control (RPS6KA5 KD2 (human)) was 40%, the kinase still bound, per cent of control (EPHA4 (human)) was 30% and the kinase still bound, per cent of control (RPS6KA6 KD2 (human)) was 1.8%. It also gave a kinase still bound, per cent of control (PLK3 (human)) of 0%, a kinase still bound, per cent of control (MYO3A (human)) of 0.25% and a kinase still bound, per cent of control (PRKCH (human)) of 40%. For the same molecule, the kinase still bound, per cent of control (HCK (human)) was 0.35%, the kinase still bound, per cent of control (PKN1 (human)) was 0.5% and the kinase still bound, per cent of control (IRAK3 (human)) was 0.15%. It also gave a kinase still bound, per cent of control (DAPK3 (human)) of 4.5%, a kinase still bound, per cent of control (SRPK2 (human)) of 12% and a kinase still bound, per cent of control (MAP3K5 (human)) of 40%. It also gave a kinase still bound, per cent of control (MYLK (human)) of 0.5% and a kinase still bound, per cent of control (PRKAA2 (human)) of 0.15%.

Work on `CCOc1cc(N2CCC(N3CCCCC3)CC2)ccc1Nc1nc(Nc2ccccc2S(=O)(=O)C(C)C)c2cn[nH]c2n1` yielded a kinase still bound, per cent of control [1] of 100%, a kinase still bound, per cent of control (EPHB4 (human)) of 99% and a kinase still bound, per cent of control (CHEK1 (human)) of 100%. It also gave a kinase still bound, per cent of control (BRSK1 (human)) of 100%, a kinase still bound, per cent of control (MKNK1 (human)) of 53% and a kinase still bound, per cent of control (MAP3K4 (human)) of 100%. For the same molecule, the kinase still bound, per cent of control (CAMK2D (human)) was 34%, the kinase still bound, per cent of control (TEC (human)) was 98% and the kinase still bound, per cent of control (PIK3CA (human)) was 99%. For the same molecule, the kinase still bound, per cent of control (DCLK1 (human)) was 5.2%, the kinase still bound, per cent of control (DYRK1B (human)) was 42% and the kinase still bound, per cent of control (TLK1 (human)) was 75%. The kinase still bound, per cent of control (MAPK13 (human)) was 100%, the kinase still bound, per cent of control (CAMKK2 (human)) was 46% and the kinase still bound, per cent of control (ACVR2A (human)) was 100%. It also gave a kinase still bound, per cent of control (DMPK (human)) of 70%, a kinase still bound, per cent of control (TEK (human)) of 100% and a kinase still bound, per cent of control (PIK3C2B (human)) of 100%. The kinase still bound, per cent of control (CSNK1G2 (human)) was 46%, the kinase still bound, per cent of control (CAMK1D (human)) was 1% and the kinase still bound, per cent of control (ROCK2 (human)) was 25%. It also gave a kinase still bound, per cent of control (CDK15 (human)) of 100%, a kinase still bound, per cent of control (AAK1 (human)) of 69% and a kinase still bound, per cent of control (MLTK (human)) of 100%. It also gave a kinase still bound, per cent of control (CDK2 (human)) of 100%, a kinase still bound, per cent of control (MAPK3 (human)) of 0.75% and a kinase still bound, per cent of control (NTRK2 (human)) of 59%. The kinase still bound, per cent of control (RPS6KA5 KD2 (human)) was 100%, the kinase still bound, per cent of control (EPHA4 (human)) was 100% and the kinase still bound, per cent of control (RPS6KA6 KD2 (human)) was 2.1%. The kinase still bound, per cent of control (PLK3 (human)) was 98%, the kinase still bound, per cent of control (MYO3A (human)) was 38% and the kinase still bound, per cent of control (PRKCH (human)) was 100%. The kinase still bound, per cent of control (HCK (human)) was 100%, the kinase still bound, per cent of control (PKN1 (human)) was 100% and the kinase still bound, per cent of control (IRAK3 (human)) was 100%. For the same molecule, the kinase still bound, per cent of control (DAPK3 (human)) was 83%, the kinase still bound, per cent of control (SRPK2 (human)) was 100% and the kinase still bound, per cent of control (MAP3K5 (human)) was 100%. The kinase still bound, per cent of control (MYLK (human)) was 0.9%, the kinase still bound, per cent of control (PRKAA2 (human)) was 100% and the kinase still bound, per cent of control [2] was 74%.
